Experiment: Evaluation of particle size by dynamic particle image analysis (iSpect DIA-10)
Type: physicochemical
Conditions: dispersion medium 10% polysorbate 20 aqueous solution
Source text: In the present specification, “maximum length” refers to a maximum length between two points on a contour of a particle, and this may be measured by the dynamic image analysis method. An example of the equipment used for measurement is the dynamic particle image analysis system iSpect DIA-10 (Shimadzu Corporation). In the present invention, the maximum length of particles of opicapone or a pharmaceutically acceptable salt thereof in terms of D50 value is less than 46 µm, preferably 45 µm or less, more preferably 40 µm or less, even more preferably 35 µm or less, and particularly preferably 30 µm or less or 29 µm or less. In the present invention, the maximum length of particles of opicapone or a pharmaceutically acceptable salt thereof in terms of D90 value is, for example, less than 111 µm, preferably 110 µm or less, more preferably 100 µm or less, even more preferably 90 µm or less, and particularly preferably 80 µm or less.
In the present specification, “equivalent circle diameter” refers to the diameter of a circle that has the same area as the projected area of a particle image, and this may be measured by the dynamic image analysis method. An example of the equipment used for measurement is the dynamic particle image analysis system iSpect DIA-10 (Shimadzu Corporation).
The particle sizes of the non-micronized product and the micronized products A1 to A4 prepared in Example 1 using the opicapone drug substance were measured under the following conditions.
• Measurement equipment: Dynamic particle image analysis system iSpect DIA-10 (Shimadzu Corporation) • Evaluation items: Equivalent circle diameter, maximum length • Dispersion medium: 10% polysorbate 20 aqueous solution • Sample: Approximately 10 mg of the measurement sample was placed in 1 ml of the dispersion medium, suspended, and then diluted 100-fold.

Row | Equivalent Circle Diameter D10 [µm] | Equivalent Circle Diameter D50 [µm] | Equivalent Circle Diameter D90 [µm] | Maximum Length D10 [µm] | Maximum Length D50 [µm] | Maximum Length D90 [µm] | SMILES
1 | 7 | 11 | 18 | 16 | 26 | 60 | Cc1nc(Cl)c(-c2noc(-c3cc(O)c(O)c([N+](=O)[O-])c3)n2)c(C)c1Cl [Micronized Product A2]
2 | 7 | 11 | – | 16 | 28 | 63 | Cc1nc(Cl)c(-c2noc(-c3cc(O)c(O)c([N+](=O)[O-])c3)n2)c(C)c1Cl [Micronized Product A 1]
3 | 6 | 13 | 23 | 16 | – | 111 | Cc1nc(Cl)c(-c2noc(-c3cc(O)c(O)c([N+](=O)[O-])c3)n2)c(C)c1Cl [Non-micronized Product]
4 | 7 | 11 | 19 | 15 | – | 73 | Cc1nc(Cl)c(-c2noc(-c3cc(O)c(O)c([N+](=O)[O-])c3)n2)c(C)c1Cl [Micronized Product A3]
